Data taken from publication PMC5218480 (PLoS ONE, 2017).

Tested on: MV-4-11 cells
Test: Gene expression microarray analysis (Affymetrix PrimeView) and GSEA
Format: cell-based, human
Parameters: RFU PODN (11730768_x_at) / Fold change /veh PODN (11730768_x_at) / RFU LINC00158 (11744669_a_at) / Fold change /veh LINC00158 (11744669_a_at) / RFU DUSP10 (11751237_a_at) / Fold change /veh DUSP10 (11751237_a_at) / RFU ID3 (11757404_x_at) / Fold change /veh ID3 (11757404_x_at) / RFU PLEKHG5 (11737974_s_at) / Fold change /veh PLEKHG5 (11737974_s_at) / RFU LRRC4B (11730491_at) / Fold change /veh LRRC4B (11730491_at) / RFU GIMAP4 (11747438_a_at) / Fold change /veh GIMAP4 (11747438_a_at) / RFU KRT8 (11758183_x_at) / Fold change /veh KRT8 (11758183_x_at) / RFU CNN1 (11734310_a_at) / Fold change /veh CNN1 (11734310_a_at) / RFU VPS37D (11726825_at) / Fold change /veh VPS37D (11726825_at) / RFU C10orf10 (11716522_x_at) / Fold change /veh C10orf10 (11716522_x_at) / RFU KIR2DL2 /// KIR2DL4 /// KIR2DL5A /// KIR2DL5B /// KIR2DS1 /// KIR2DS2 /// KIR2DS3 /// KIR2DS4 /// KIR3DL3 /// KIR3DL3 /// KIR3DS1 (11738374_at) / Fold change /veh KIR2DL2 /// KIR2DL4 /// KIR2DL5A /// KIR2DL5B /// KIR2DS1 /// KIR2DS2 /// KIR2DS3 /// KIR2DS4 /// KIR3DL3 /// KIR3DL3 /// KIR3DS1 (11738374_at) / RFU C1QL1 (11718748_at) / Fold change /veh C1QL1 (11718748_at) / RFU TMPRSS4 (11747572_a_at) / Fold change /veh TMPRSS4 (11747572_a_at) / RFU HAMP (11756126_x_at) / Fold change /veh HAMP (11756126_x_at) / RFU RNFT2 (11725882_a_at) / Fold change /veh RNFT2 (11725882_a_at) / RFU NR4A2 (11747474_a_at) / Fold change /veh NR4A2 (11747474_a_at) / RFU ABCC12 (11746883_a_at) / Fold change /veh ABCC12 (11746883_a_at) / RFU TMEM136 (11760407_x_at) / Fold change /veh TMEM136 (11760407_x_at) / RFU CLDN22 /// WWC2 (11732394_at) / Fold change /veh CLDN22 /// WWC2 (11732394_at) / RFU HLA-DPB1 (11760878_x_at) / Fold change /veh HLA-DPB1 (11760878_x_at) / RFU SPINT1 (11716480_a_at) / Fold change /veh SPINT1 (11716480_a_at) / RFU GAP43 (11754022_s_at) / Fold change /veh GAP43 (11754022_s_at) / RFU A4GNT (11735810_at) / Fold change /veh A4GNT (11735810_at) / RFU PRB3 (11715151_x_at) / Fold change /veh PRB3 (11715151_x_at) / RFU TUBB4B (11761932_at) / Fold change /veh TUBB4B (11761932_at) / RFU CAPN14 (11732068_a_at) / Fold change /veh CAPN14 (11732068_a_at) / RFU TMCC2 (11721928_a_at) / Fold change /veh TMCC2 (11721928_a_at) / RFU IRGQ (11745062_a_at) / Fold change /veh IRGQ (11745062_a_at) / RFU FAM174B (11720279_a_at) / Fold change /veh FAM174B (11720279_a_at) / RFU TMPRSS4 (11748680_a_at) / Fold change /veh TMPRSS4 (11748680_a_at) / RFU FAM212B (11763350_a_at) / Fold change /veh FAM212B (11763350_a_at) / RFU PLEKHG5 (11743358_a_at) / Fold change /veh PLEKHG5 (11743358_a_at) / RFU ZSCAN30 (11745921_a_at) / Fold change /veh ZSCAN30 (11745921_a_at) / RFU CMKLR1 (11741424_a_at) / Fold change /veh CMKLR1 (11741424_a_at) / RFU LOC101060620 /// MAPK8IP1 (11723275_at) / Fold change /veh LOC101060620 /// MAPK8IP1 (11723275_at) / RFU SPTSSB (11747773_x_at) / Fold change /veh SPTSSB (11747773_x_at) / RFU PRSS12 (11739890_at) / Fold change /veh PRSS12 (11739890_at) / RFU BIN1 (11741810_x_at) / Fold change /veh BIN1 (11741810_x_at) / RFU WNT11 (11732464_a_at) / Fold change /veh WNT11 (11732464_a_at) / RFU C10orf10 (11716521_a_at) / Fold change /veh C10orf10 (11716521_a_at) / RFU C5orf56 (11738089_at) / Fold change /veh C5orf56 (11738089_at) / RFU CYB561 (11721691_x_at) / Fold change /veh CYB561 (11721691_x_at) / RFU ANKRD19P (11752326_a_at) / Fold change /veh ANKRD19P (11752326_a_at) / RFU OR2T12 /// OR2T33 /// OR2T8 (11738714_s_at) / Fold change /veh OR2T12 /// OR2T33 /// OR2T8 (11738714_s_at) / RFU VCAN (11748164_a_at) / Fold change /veh VCAN (11748164_a_at) / RFU JSRP1 (11732532_at) / Fold change /veh JSRP1 (11732532_at) / RFU KRTAP10-11 (11738290_x_at) / Fold change /veh KRTAP10-11 (11738290_x_at) / RFU MYO3A (11730013_a_at) / Fold change /veh MYO3A (11730013_a_at) / RFU EBF3 (11725865_a_at) / Fold change /veh EBF3 (11725865_a_at) / RFU CAMK2N1 (11719241_x_at) / Fold change /veh CAMK2N1 (11719241_x_at) / RFU C5orf56 (11738088_a_at) / Fold change /veh C5orf56 (11738088_a_at) / RFU OLFML3 (11715873_a_at) / Fold change /veh OLFML3 (11715873_a_at) / RFU LOC100653217 /// NTM (11731650_a_at) / Fold change /veh LOC100653217 /// NTM (11731650_a_at) / RFU MAPK11 (11762145_a_at) / Fold change /veh MAPK11 (11762145_a_at) / RFU FIZ1 (11724087_x_at) / Fold change /veh FIZ1 (11724087_x_at) / RFU OASL (11726364_x_at) / Fold change /veh OASL (11726364_x_at) / RFU SOX15 (11748057_x_at) / Fold change /veh SOX15 (11748057_x_at) / RFU CD79A (11719716_a_at) / Fold change /veh CD79A (11719716_a_at) / RFU HIST1H1D (11736915_at) / Fold change /veh HIST1H1D (11736915_at) / RFU CASKIN2 (11723855_a_at) / Fold change /veh CASKIN2 (11723855_a_at) / RFU LOC730098 (11760151_x_at) / Fold change /veh LOC730098 (11760151_x_at) / RFU OR4N2 (11742367_at) / Fold change /veh OR4N2 (11742367_at) / RFU PRRT2 (11749266_a_at) / Fold change /veh PRRT2 (11749266_a_at) / RFU SNX32 (11753110_a_at) / Fold change /veh SNX32 (11753110_a_at) / RFU CDHR5 (11726645_a_at) / Fold change /veh CDHR5 (11726645_a_at) / RFU RCAN1 (11760418_a_at) / Fold change /veh RCAN1 (11760418_a_at) / RFU FAM167A (11723789_a_at) / Fold change /veh FAM167A (11723789_a_at) / RFU FAM26E (11764081_at) / Fold change /veh FAM26E (11764081_at) / RFU ISYNA1 (11749810_s_at) / Fold change /veh ISYNA1 (11749810_s_at) / RFU ACY1 (11761880_at) / Fold change /veh ACY1 (11761880_at) / RFU 11764098_at / Fold change /veh 11764098_at / RFU SAMD14 (11745864_x_at) / Fold change /veh SAMD14 (11745864_x_at) / RFU NPB (11741838_a_at) / Fold change /veh NPB (11741838_a_at) / RFU TMPRSS6 (11731388_a_at) / Fold change /veh TMPRSS6 (11731388_a_at) / RFU KRTAP10-2 (11738614_at) / Fold change /veh KRTAP10-2 (11738614_at) / RFU ARHGAP8 /// PRR5-ARHGAP8 (11727945_x_at) / Fold change /veh ARHGAP8 /// PRR5-ARHGAP8 (11727945_x_at) / RFU KRTAP5-7 /// NADSYN1 (11734609_at) / Fold change /veh KRTAP5-7 /// NADSYN1 (11734609_at) / RFU RASL12 (11751679_a_at) / Fold change /veh RASL12 (11751679_a_at) / RFU CDKN2B (11736163_a_at) / Fold change /veh CDKN2B (11736163_a_at) / RFU PRF1 (11729649_at) / Fold change /veh PRF1 (11729649_at) / RFU, ZNF638 /// ZNF638-IT1 / Fold change vs veh, ZNF638 /// ZNF638-IT1 / RFU, PANK3 / Fold change vs veh, PANK3 / RFU, SH3YL1 / Fold change vs veh, SH3YL1 / RFU, ZEB2 / Fold change vs veh, ZEB2 / RFU, NRIP1 / Fold change vs veh, NRIP1 / RFU, PTTG1IP / Fold change vs veh, PTTG1IP / RFU, CAPN2 / Fold change vs veh, CAPN2 / RFU, MED14 / Fold change vs veh, MED14 / RFU, SNORA58 / Fold change vs veh, SNORA58 / RFU, C1orf63 / Fold change vs veh, C1orf63 / RFU, LRRFIP1 / Fold change vs veh, LRRFIP1 / RFU, NDUFAF7 / Fold change vs veh, NDUFAF7 / RFU, SLC12A2 / Fold change vs veh, SLC12A2 / RFU, IBTK / Fold change vs veh, IBTK / RFU, ESF1 / Fold change vs veh, ESF1 / Fold change vs veh, TMEM50B / RFU, TAOK1 / Fold change vs veh, TAOK1 / RFU, ACBD3 / Fold change vs veh, ACBD3 / RFU, TMA16 / Fold change vs veh, TMA16 / RFU, RWDD3 / Fold change vs veh, RWDD3 / RFU, BCAT1 / Fold change vs veh, BCAT1 / RFU, EDEM3 / Fold change vs veh, EDEM3 / RFU, TMEM33 / Fold change vs veh, TMEM33 / RFU, WDR75 / Fold change vs veh, WDR75 / RFU, AHCTF1 / Fold change vs veh, AHCTF1 / RFU, TFRC / Fold change vs veh, TFRC / RFU, ZDHHC17 / Fold change vs veh, ZDHHC17 / RFU, NOM1 / Fold change vs veh, NOM1 / RFU, ARL8B / Fold change vs veh, ARL8B / RFU, ZBTB11 / Fold change vs veh, ZBTB11 / RFU, TAMM41 / Fold change vs veh, TAMM41 / RFU, KIAA1704 /// LOC100996395 / Fold change vs veh, KIAA1704 /// LOC100996395 / RFU, ING1 / Fold change vs veh, ING1 / RFU, TRMT61B / Fold change vs veh, TRMT61B / RFU, FUBP3 / Fold change vs veh, FUBP3 / RFU, TP53 / Fold change vs veh, TP53 / RFU, TNKS2 / Fold change vs veh, TNKS2 / RFU, ZFP14 / Fold change vs veh, ZFP14 / RFU, ACTR2 / Fold change vs veh, ACTR2 / RFU, PPP3R1 / Fold change vs veh, PPP3R1 / RFU, PIK3R1 / Fold change vs veh, PIK3R1 / RFU, HNRNPA1 / Fold change vs veh, HNRNPA1 / RFU, RNF170 / Fold change vs veh, RNF170 / RFU, ZNF28 / Fold change vs veh, ZNF28 / RFU, RNGTT / Fold change vs veh, RNGTT / RFU, OGT / Fold change vs veh, OGT / RFU, BRD1 / Fold change vs veh, BRD1 / RFU, MARS / Fold change vs veh, MARS / RFU, ZNF655 / Fold change vs veh, ZNF655 / RFU, FAHD1 / Fold change vs veh, FAHD1 / RFU, BDP1 / Fold change vs veh, BDP1 / RFU, LRRCC1 / Fold change vs veh, LRRCC1 / RFU, ARID1A / Fold change vs veh, ARID1A / RFU, ZNF146 / Fold change vs veh, ZNF146 / RFU, ZNF330 / Fold change vs veh, ZNF330 / RFU, GPN3 / Fold change vs veh, GPN3 / RFU, C9orf123 / Fold change vs veh, C9orf123 / RFU, N4BP2L2 / Fold change vs veh, N4BP2L2 / RFU, ARFIP1 / Fold change vs veh, ARFIP1 / RFU, FAM179B / Fold change vs veh, FAM179B / RFU, BCL10 / Fold change vs veh, BCL10 / RFU, UHRF1BP1L / Fold change vs veh, UHRF1BP1L / RFU, BET1 / Fold change vs veh, BET1 / RFU, CNOT2 / Fold change vs veh, CNOT2 / RFU, ZNF268 / Fold change vs veh, ZNF268 / Fold change vs veh, ZNF507 / RFU, DGCR2 / Fold change vs veh, DGCR2 / RFU, WDSUB1 / Fold change vs veh, WDSUB1 / Fold change vs veh, HSP90B1 /// MIR3652 / RFU, ADSS / Fold change vs veh, ADSS / RFU, GK / Fold change vs veh, GK / RFU, ZNF148 / Fold change vs veh, ZNF148 / RFU, TAF9 / Fold change vs veh, TAF9 / RFU, SLC1A5 / Fold change vs veh, SLC1A5 / RFU, SLMO2 / Fold change vs veh, SLMO2 / RFU, ABCC4 / Fold change vs veh, ABCC4 / RFU, LOC101060439 /// RAP1B / Fold change vs veh, LOC101060439 /// RAP1B / RFU, RFX7 / Fold change vs veh, RFX7 / RFU, GTPBP10 / Fold change vs veh, GTPBP10 / RFU, CNEP1R1 / Fold change vs veh, CNEP1R1 / RFU, BIVM-ERCC5 /// ERCC5 / Fold change vs veh, BIVM-ERCC5 /// ERCC5 / RFU, ILF3 / Fold change vs veh, ILF3 / RFU 11762660_at / Fold change /veh 11762660_at / RFU VCAN (11757783_s_at) / Fold change /veh VCAN (11757783_s_at) / RFU DDX43 (11728927_at) / Fold change /veh DDX43 (11728927_at) / RFU KRT8 (11758188_x_at) / Fold change /veh KRT8 (11758188_x_at) / RFU NKD1 (11759106_at) / Fold change /veh NKD1 (11759106_at) / RFU SRD5A1 (11742802_a_at) / Fold change /veh SRD5A1 (11742802_a_at) / RFU TPSAB1 /// TPSB2 (11721975_s_at) / Fold change /veh TPSAB1 /// TPSB2 (11721975_s_at) / RFU GSTM3 (11746129_a_at) / Fold change /veh GSTM3 (11746129_a_at) / RFU IL23R (11737362_x_at) / Fold change /veh IL23R (11737362_x_at) / RFU TMEM51 (11727254_a_at) / Fold change /veh TMEM51 (11727254_a_at) / RFU PIWIL2 (11732686_x_at) / Fold change /veh PIWIL2 (11732686_x_at) / RFU ORM1 (11744905_x_at) / Fold change /veh ORM1 (11744905_x_at) / RFU CCDC152 (11743942_at) / Fold change /veh CCDC152 (11743942_at) / RFU ECM1 (11717891_a_at) / Fold change /veh ECM1 (11717891_a_at) / RFU IL23R (11748794_a_at) / Fold change /veh IL23R (11748794_a_at) / RFU TNFAIP8L3 (11732012_x_at) / Fold change /veh TNFAIP8L3 (11732012_x_at) / RFU MBOAT4 (11741988_at) / Fold change /veh MBOAT4 (11741988_at) / RFU 11764193_at / Fold change /veh 11764193_at / RFU TMEM53 (11763286_at) / Fold change /veh TMEM53 (11763286_at) / RFU MAGEB2 (11727129_at) / Fold change /veh MAGEB2 (11727129_at) / RFU TMEM200A (11744735_a_at) / Fold change /veh TMEM200A (11744735_a_at) / RFU CCDC152 (11751479_a_at) / Fold change /veh CCDC152 (11751479_a_at) / RFU FAM211A (11726209_a_at) / Fold change /veh FAM211A (11726209_a_at) / RFU RGS16 (11746705_a_at) / Fold change /veh RGS16 (11746705_a_at) / RFU VCAN (11755009_s_at) / Fold change /veh VCAN (11755009_s_at) / RFU RHOB (11743442_s_at) / Fold change /veh RHOB (11743442_s_at) / RFU RGS16 (11720943_a_at) / Fold change /veh RGS16 (11720943_a_at) / RFU RGS16 (11720944_at) / Fold change /veh RGS16 (11720944_at) / RFU, VPS4B / Fold change vs veh, VPS4B / RFU, CREB1 / Fold change vs veh, CREB1 / RFU, DNAJC13 / Fold change vs veh, DNAJC13 / RFU, GNAQ / Fold change vs veh, GNAQ / RFU, CDK5R1 / Fold change vs veh, CDK5R1 / RFU, ZRANB3 / Fold change vs veh, ZRANB3 / RFU, CUL4A / Fold change vs veh, CUL4A / RFU, CCNY / Fold change vs veh, CCNY / RFU, UFL1 / Fold change vs veh, UFL1 / RFU, COG3 / Fold change vs veh, COG3 / RFU, DIAPH2 / Fold change vs veh, DIAPH2 / RFU, SKA2 / Fold change vs veh, SKA2 / RFU, AFF3 / Fold change vs veh, AFF3 / RFU, LMF1 / Fold change vs veh, LMF1 / RFU, IPO11 / Fold change vs veh, IPO11 / RFU, DFFB / Fold change vs veh, DFFB / RFU, FOXP1 / Fold change vs veh, FOXP1 / RFU, CARD8 / Fold change vs veh, CARD8 / RFU, STRN3 / Fold change vs veh, STRN3 / RFU, ADK / Fold change vs veh, ADK / RFU, RASSF2 / Fold change vs veh, RASSF2 / RFU, WIPF1 / Fold change vs veh, WIPF1 / RFU, LARP1B / Fold change vs veh, LARP1B / RFU, RASA1 / Fold change vs veh, RASA1 / RFU, RB1 / Fold change vs veh, RB1 / RFU, PPFIA1 / Fold change vs veh, PPFIA1 / RFU, MAT2A / Fold change vs veh, MAT2A / RFU, CCT5 / Fold change vs veh, CCT5 / RFU, WDR92 / Fold change vs veh, WDR92 / RFU, CUX1 / Fold change vs veh, CUX1 / RFU, TTC7A / Fold change vs veh, TTC7A / RFU, TMEM135 / Fold change vs veh, TMEM135 / RFU, DEPTOR / Fold change vs veh, DEPTOR / RFU, CPM / Fold change vs veh, CPM / RFU, DNAJB6 / Fold change vs veh, DNAJB6 / RFU, CACNA2D3 / Fold change vs veh, CACNA2D3 / RFU, DTX4 / Fold change vs veh, DTX4 / RFU, TFCP2 / Fold change vs veh, TFCP2 / RFU, GMCL1 /// GMCL1P1 / Fold change vs veh, GMCL1 /// GMCL1P1 / RFU, AEBP2 / Fold change vs veh, AEBP2 / RFU, SNHG1 /// SNORD22 /// SNORD25 /// SNORD26 /// SNORD27 /// SNORD28 /// SNORD29 /// SNORD31 / Fold change vs veh, SNHG1 /// SNORD22 /// SNORD25 /// SNORD26 /// SNORD27 /// SNORD28 /// SNORD29 /// SNORD31 / Fold change (Aza/veh), C12orf56 (ProbeSet 11735607_a_at) / Fold change (ACY-1035/veh), C12orf56 (ProbeSet 11735607_a_at) / Fold change (Aza/veh), FGFR1OP (ProbeSet 11751329_s_at) / Fold change (ACY-1035/veh), FGFR1OP (ProbeSet 11751329_s_at) / Fold change (Aza/veh), VPS36 (ProbeSet 11739960_a_at) / Fold change (ACY-1035/veh), VPS36 (ProbeSet 11739960_a_at) / RFU SYPL1 (11715823_x_at) / Fold change /veh SYPL1 (11715823_x_at) / RFU IGFBP7 (11715501_s_at) / Fold change /veh IGFBP7 (11715501_s_at) / RFU REEP3 (11722064_at) / Fold change /veh REEP3 (11722064_at) / RFU IGLL1 (11728026_x_at) / Fold change /veh IGLL1 (11728026_x_at): dose or concentration left out as unconfirmed
Conditions: ProbeSet 11760938_a_at; LIST D

**Q.** With `Nc1ncn([C@@H]2O[C@H](CO)[C@@H](O)[C@H]2O)c(=O)n1` [azacitidine] as the molecule, how does the “Fold change vs veh, MAT2A” value read?
**A.** 0.66
